Results published in paper PMC8969509 (Journal of Antimicrobial Chemotherapy, 2022).

Target: T1, Mtb topoisomerase I (Mycobacterium tuberculosis, UniProt P9WG49)
T1 construct: gene topA
Assay: biochemical

T1 sequence (P9WG49 whole entry): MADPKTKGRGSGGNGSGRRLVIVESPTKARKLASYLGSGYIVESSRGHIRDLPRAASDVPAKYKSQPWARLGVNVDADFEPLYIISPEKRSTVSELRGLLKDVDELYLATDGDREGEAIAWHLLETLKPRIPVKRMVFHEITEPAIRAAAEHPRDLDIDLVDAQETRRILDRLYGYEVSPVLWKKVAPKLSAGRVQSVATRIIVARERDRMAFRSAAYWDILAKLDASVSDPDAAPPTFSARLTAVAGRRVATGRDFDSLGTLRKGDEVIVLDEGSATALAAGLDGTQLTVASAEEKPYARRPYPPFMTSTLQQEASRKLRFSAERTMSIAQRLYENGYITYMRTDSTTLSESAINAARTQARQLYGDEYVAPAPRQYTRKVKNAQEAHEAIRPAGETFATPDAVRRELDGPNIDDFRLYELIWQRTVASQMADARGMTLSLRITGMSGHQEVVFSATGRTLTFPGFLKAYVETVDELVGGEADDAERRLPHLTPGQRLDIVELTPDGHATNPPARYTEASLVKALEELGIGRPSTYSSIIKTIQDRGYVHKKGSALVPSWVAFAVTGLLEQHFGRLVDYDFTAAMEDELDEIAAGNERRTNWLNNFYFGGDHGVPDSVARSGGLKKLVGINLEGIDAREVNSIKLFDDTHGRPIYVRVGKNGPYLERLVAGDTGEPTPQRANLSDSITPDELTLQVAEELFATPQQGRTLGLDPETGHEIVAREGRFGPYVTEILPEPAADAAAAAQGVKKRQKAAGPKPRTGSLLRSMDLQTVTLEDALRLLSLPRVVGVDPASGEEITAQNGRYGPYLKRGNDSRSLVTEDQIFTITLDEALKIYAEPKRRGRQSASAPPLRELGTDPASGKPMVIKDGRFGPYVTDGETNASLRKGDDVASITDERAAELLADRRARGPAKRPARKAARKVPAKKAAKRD

Structure (SMILES): COc1cc(NS(C)(=O)=O)ccc1Nc1c2ccccc2nc2ccccc12 [mAMSA]
- IC50: 17.4 µM
